Laboratory results from ChEMBL document CHEMBL5303709, “ECBD screening data for assay EOS300041” (2022).
Peptide text beside a SMILES is read from it. * marks the point of attachment. Cbz = O=C(OCc1ccccc1)*

Biological target: Replicase polyprotein 1ab (Severe acute respiratory syndrome coronavirus 2) (UniProt P0DTD1)
Test: Inhibition of SARS-CoV-2 3CL-Pro proteolytic cleavage of a dual-labeled substrate by FRET.
Type: functional
Set-up: assay stage

Compared with `O=C(c1ccc(Cl)cc1)c1cc([N+](=O)[O-])ccc1N1CCOCC1`, `Oc1cc2c(cc1C(c1ccc(C(F)(F)F)cc1)N1CCOCC1)OCO2` (configuration not stated) is lower in IC50 relative: > 20 µM for the first, 0.545 µM for the second.

Going from `CCOc1cc(C(Nc2cc(C)ccn2)c2ccc3cccnc3c2O)ccc1OC` (configuration not stated) to `CCN1CCN(C(c2ccc(C(F)(F)F)cc2)c2ccc3cccnc3c2O)CC1` (configuration not stated), the IC50 relative falls from 0.269 µM to 0.152 µM (1.8-fold).

`Cc1ccc(-n2sc3ccccc3c2=O)cc1` and `O=c1c2ccccc2sn1-c1ccccc1` cannot be ordered by IC50 relative: < 0.02 µM for the first, < 0.02 µM for the second.

Compared with `O=C(O)[C@@H](S)[C@@H](S)C(=O)O`, `NC(Cc1cc(O)c(O)cc1O)C(=O)O` (racemic) is higher in IC50 relative: 6.74 µM for the first, > 20 µM for the second.

`COc1ccnc(C[S+]([O-])c2nc3cc(OC(F)F)ccc3[nH]2)c1OC` (configuration not stated) and `COc1ccc2[nH]c([S+]([O-])Cc3ncc(C)c(OC)c3C)nc2c1` (configuration not stated) cannot be ordered by IC50 relative: > 20 µM for the first, > 20 µM for the second.

Compared with `O=C(NC(=S)N1CCCc2ccccc21)c1ccccc1`, `O=C(CCl)c1ccccc1` is lower in IC50 relative: > 20 µM for the first, 0.19 µM for the second.

Compared with `O=[N+]([O-])c1ccc(Sc2cccc[n+]2[O-])c2nonc12`, `[O-][n+]1ccccc1S` is higher in IC50 relative: < 0.02 µM for the first, 0.0487 µM for the second.

`Cc1ccc(-n2sc(=O)n(Cc3ccc(F)cc3)c2=O)cc1` and `Cn1sc(=O)n(Cc2ccccc2)c1=O` cannot be ordered by IC50 relative: < 0.02 µM for the first, < 0.02 µM for the second.

`O=C(O)c1c(Cl)c(Cl)c(Cl)c(Cl)c1-c1c2cc(I)c(=O)c(I)c-2oc2c(I)c(O)c(I)cc12` and `Cc1cc(-c2ccc(/C=C3/S/C(=N\c4ccc(Cl)c(C(=O)O)c4)NC3=O)o2)c([N+](=O)[O-])cc1C` cannot be ordered by IC50 relative: > 20 µM for the first, > 20 µM for the second.

First: Nc1ccc(O)c2ncccc12
Second: COc1ccc2[nH]c3c(S)ncnc3c2c1
The IC50 relative of the first is lower: 2.05 µM for the first, > 20 µM for the second.

Going from `Nc1nc(S)c2ncn(C3OC(CO)C(O)C3O)c2n1` (configuration not stated) to `CCCCn1c(NC(=O)c2cccs2)c(C#N)c2nc3ccccc3nc21`, the IC50 relative rises from 1.07 µM to > 20 µM.

Compared with `CC1=CC(=O)c2ccccc2C1=O`, `CCOC(=O)c1c(N)sc(-c2ccccc2)c1C` is lower in IC50 relative: > 20 µM for the first, 3.28 µM for the second.

Compared with `Cc1ccc(S(=O)(=O)N[C@@H](Cc2ccccc2)C(=O)CCl)cc1`, `CCN(CC)S(=O)(=O)c1cccc(-n2sc3ccccc3c2=O)c1` is lower in IC50 relative: 1.37 µM for the first, < 0.02 µM for the second.

`Cc1ccc(C)c(-n2sc3cc(F)ccc3c2=O)c1` and `CN(C)S(=O)(=O)c1cccc(-n2sc3ccccc3c2=O)c1` cannot be ordered by IC50 relative: < 0.02 µM for the first, < 0.02 µM for the second.

`O=C(Nc1ccccc1)Nc1ccc(-c2ccc(C(=O)[C@@H]3CCC[C@H]3C(=O)O)cc2)cc1` and `O=C(/C=C/c1ccc2ccccc2n1)c1ccncc1` cannot be ordered by IC50 relative: > 20 µM for the first, > 20 µM for the second.

First: CCN(CC)C(=S)S
Second: COc1cc(N(C)C)cc(CN(C)CCc2ccc([N+](=O)[O-])cc2)c1O
The IC50 relative of the first is higher: > 20 µM for the first, 6.09 µM for the second.

Compared with `CC(Cc1ccc(O)c(O)c1)C(C)Cc1ccc(O)c(O)c1` (configuration not stated), `O=c1c(O)cccc2cc(O)c(O)c(O)c12` is lower in IC50 relative: > 20 µM for the first, 6.98 µM for the second.

`C[C@H]1COC2=C1C(=O)C(=O)c1c2ccc2c1CCCC2(C)C` and `O=c1cc(-c2ccccc2)oc2cc(O)c(O)c(O)c12` cannot be ordered by IC50 relative: > 20 µM for the first, > 20 µM for the second.

First: S=C=NCc1ccccc1
Second: Sc1nnnn1-c1ccccc1
The IC50 relative of the first is higher: > 20 µM for the first, 2.36 µM for the second.

Going from `O=C(c1cccs1)c1no[n+]([O-])c1C(=O)c1cccs1` to `CN1CCN(C(=O)c2ccc(-c3ccc4c(C=O)c(O)ccc4c3)s2)CC1`, the IC50 relative falls from 11 µM to 1.94 µM (5.7-fold).

`Cc1cc(-c2ccc(/N=N/c3ccc4c(S(=O)(=O)O)cc(S(=O)(=O)O)c(N)c4c3O)c(C)c2)ccc1/N=N/c1ccc2c(S(=O)(=O)O)cc(S(=O)(=O)O)c(N)c2c1O` and `COc1ncc(-c2ccc3nccc(-c4ccnnc4)c3c2)cc1NS(=O)(=O)c1ccc(F)cc1F` cannot be ordered by IC50 relative: > 20 µM for the first, > 20 µM for the second.

First: COC(=O)CC[C@H](NC(=O)[C@H](CC(=O)OC)NC(=O)OCc1ccccc1)C(=O)N[C@H](C(=O)N[C@@H](CC(=O)OC)C(=O)CF)C(C)C
Second: CC(C)C[C@@H](C=O)NC(=O)[C@H](CC(C)C)NC(=O)[C@H](CC(C)C)NC(=O)OCc1ccccc1 (Cbz-Leu-Leu-Leu-aldehyde)
The IC50 relative of the first is lower: < 0.02 µM for the first, > 20 µM for the second.

Going from `O=C1C(Cl)=C(Cl)C(=O)C(Cl)=C1Cl` to `CC(C)(C)OC(=O)NCCc1nnc(S(=O)(=O)Cc2ccc(Cl)cc2Cl)o1`, the IC50 relative rises from < 0.02 µM to 4.22 µM.

`COc1ccc2[nH]c(S)nc2c1` and `Sc1nnc(-c2ccccc2Cl)o1` cannot be ordered by IC50 relative: > 20 µM for the first, > 20 µM for the second.

`O=C(O)C1=CC(=C(c2ccc(O)c(C(=O)O)c2)c2ccc(O)c(C(=O)O)c2)C=CC1=O` and `Cc1c(-c2ccc(N3CCc4cccc(C(=O)Nc5nc6ccccc6s5)c4C3)nc2C(=O)O)cnn1CC12CC3CC(CC(C3)C1)C2` cannot be ordered by IC50 relative: > 20 µM for the first, > 20 µM for the second.

Compared with `Sc1nnc(Nc2ccccc2)s1`, `S=C=Nc1cccc(NC(=S)NCCCCNC(=S)Nc2cccc(N=C=S)c2)c1` is higher in IC50 relative: 0.39 µM for the first, > 20 µM for the second.
